Measured values reported in patent US4678810A, “Medical uses of halogenobenzohenone-oxime derivatives” (Institut de Recherches Chimiques et Biologiques of Appliques, priority 1983, dated 1987).
Converted amounts (≈) assume the structure as drawn.

How the values were obtained:
[1] = Acute oral toxicity (DL-50), 14-day observation; conditions: mouse, in vivo, mice, per os, 14 days observation
Method: (§1) Assays were performed on batches of mice (males and females) weighing each from 18 to 20 g and receiving the compounds to be tested at the doses of 0.5 g/kg, 0.8 g/kg, 1 g/kg, 2 g/kg, 3 g/kg and 4 g/kg per os in an aqueous medium containing 20 g/l of carboxymethylcellulose, the animals being observed during the 14 days following administration.

[2] = Tolerance: diarrhoea after oral administration; format: in vivo; conditions: mice, per os
Method: as §1

[3] = Tolerance: rectal temperature after oral administration; format: in vivo; conditions: mice, per os, from the dose of 2 g/kg
Method: as §1

[4] = Tolerance: weight / liver hypertrophy after oral administration; format: in vivo; conditions: mice, per os, from the dose of 0.8 g/kg
Method: as §1

[5] = tested on: Bacillus subtilis ATCC 6633; test: Antibacterial activity in vitro (MIC), dilution technique; format: cell-based; conditions: ATCC6633
Description: (§2) The antibacterial activity was studied in vitro according to the usual classical dilution techinque with respect to several strains, in order to determine the minimal inhibiting concentration (M.I.C.) i.e. the minimal bacteriostatic concentration.
(§3) The results thus obtained are tabulated in table II hereinafter, the strains used being those of the catalogues of the "Institut Pasteur" of Paris, France (abbreviation: CIP), the "Centre International de Distribution de Souches et d'Information sur les Types Microbiens de Lausanne" (abbreviation: La) and the "American Type Culture Collection" (abbreviation: ATCC).

[6] = tested on: Diplococcus pneumoniae La 209; test: as above; format: cell-based; conditions: Streptococcus pneumoniae, LA209
Description: as §2, §3

[7] = tested on: Diplococcus pneumoniae La 210; test: as above; format: cell-based; conditions: Streptococcus pneumoniae, LA210
Description: as §2, §3

[8] = tested on: Staphylococcus aureus ATCC 6538 P; test: as above; format: cell-based; conditions: ATCC6538
Description: as §2, §3

[9] = tested on: Staphylococcus aureus La 634; test: as above; format: cell-based; conditions: LA634
Description: as §2, §3

[10] = tested on: Staphylococcus aureus La 636; test: as above; format: cell-based; conditions: LA636
Description: as §2, §3

[11] = tested on: Staphylococcus aureus La 659; test: as above; format: cell-based; conditions: LA659
Description: as §2, §3

[12] = tested on: Staphylococcus aureus London CIP A.238; test: as above; format: cell-based
Description: as §2, §3

Streptococcus La 147 = test: as above; format: cell-based; conditions: LA147
Description: as §2, §3

[13] = tested on: Streptococcus faecalis CIP 53.152; test: as above; format: cell-based; conditions: Enterococcus faecalis, CIP53
Description: as §2, §3

[14] = tested on: Streptococcus faecalis CIP 55.142; test: as above; format: cell-based; conditions: Enterococcus faecalis, CIP55
Description: as §2, §3

[15] = tested on: Streptococcus pyogenes CIP. 56.1; test: as above; format: cell-based
Description: as §2, §3

[16] = tested on: Streptococcus pyogenes CIP. 56.41; test: as above; format: cell-based
Description: as §2, §3

[17] = tested on: Streptococcus pyogenes CIP. 56.43; test: as above; format: cell-based
Description: as §2, §3

[18] = tested on: Streptococcus pyogenes CIP. 56.45; test: as above; format: cell-based
Description: as §2, §3

[19] = tested on: Streptococcus pyogenes CIP. A 241; test: as above; format: cell-based; conditions: CIP.A241
Description: as §2, §3

[20] = cited from earlier work
Gram+ bacteriae = conditions: commercialized drug; cited from earlier work
Gram+ strains = test: Antibacterial activity in vitro, summary for Gram+ strains; format: cell-based, Gram+ bacteriae; conditions: compared with B.11
Description: as §2, §3

[21] = tested on: Gram- strains such as Neisseria; test: Antibacterial activity in vitro, summary for some Gram- strains; format: cell-based
Description: as §2, §3

[22] = tested on: acute infections of the otorhinolaryngological system and bronchopathies; test: Clinical assays in acute infections of the otorhinolaryngological system and bronchopathies; format: in vivo, human; conditions: humans, acute ENT infections and bronchopathies
Method: Clinical assays carried out on human beings suffering from infectious disease caused by Gram+ bacteriae and Neisseria Gram- bacteria gave fair and good results, especially when the pharmaceutical composition according to the invention which was administered suitably contained from 0.1 to 95% by weight of at least one compound of the formula I.
For oral administration, the composition is preferably formulated as tablets or gelatine-coated capsules, each tablet or capsule containing from 10 to 200 mg of the active ingredient. For the treatment of infections due to Gram+ bacteriae and Neisseria, such tablets or capsules are suitably administered to human patients at the rate of 2 to 8 tablets or capsules per day, for at least 4 days and preferably from 4 to 7 days, in particular for compound B.602.

[23] = set-up: species or system mice; conditions: mouse, in vivo
Method: as §1

| SMILES | LD50 at 336 h [1] | MIC [5] | MIC [6] | MIC [7] | MIC [8] | MIC [9] | MIC [10] | MIC [11] | MIC [12] | MIC (Streptococcus La 147) | MIC [13] | MIC [14] | MIC [15] | MIC [16] | MIC [17] | MIC [18] | MIC [19] | further results |
| --- | --- | --- | --- | --- | --- | --- | --- | --- | --- | --- | --- | --- | --- | --- | --- | --- | --- | --- |
| CC(C)(C)CC(C)(C)c1ccc(O)c(Cc2ccc(Cl)cc2Cl)c1 [Clofoctol, 2-(2,4-dicholrobenzyl)-4-(1,1,3,3-tetramethylbutyl)-phenol] | 2000 mg/kg | 4 µg/mL (≈ 10.9 µM) | 4 µg/mL (≈ 10.9 µM) | 5 µg/mL (≈ 13.7 µM) | 8 µg/mL (≈ 21.9 µM) | 6 µg/mL (≈ 16.4 µM) | 5 µg/mL (≈ 13.7 µM) | 6 µg/mL (≈ 16.4 µM) | 3 µg/mL (≈ 8.21 µM) | 7 µg/mL (≈ 19.2 µM) | 6 µg/mL (≈ 16.4 µM) | 5 µg/mL (≈ 13.7 µM) | 3 µg/mL (≈ 8.21 µM) | 4 µg/mL (≈ 10.9 µM) | 2 µg/mL (≈ 5.47 µM) | 2 µg/mL (≈ 5.47 µM) | 4 µg/mL (≈ 10.9 µM) | dose at which it begins to induce diarrhoea [2]: 800 mg/kg; reduction of rectal temperature [3]: reduces the rectal temperature for 48 hours; liver hypertrophy [4]: induces a slight liver hypertrophy; hydrosolubility / hydrodispersibility [20]: not naturally hydrosoluble nor hydrodispersible; effectiveness in infectious diseases caused by Gram+ bacteriae (Gram+ bacteriae): particularly effective |
| CC(C)(C)CC(C)(C)c1ccc(O)c(C(=NO)c2ccc(Cl)cc2Cl)c1 [Example 1, 2',4'-dichloro-2-hydroxy-5-(1,1,3,3-tetramethylbutyl)-benzophenone-oxime] | > 4000 mg/kg | 1 µg/mL (≈ 2.54 µM) | 4 µg/mL (≈ 10.1 µM) | 3 µg/mL (≈ 7.61 µM) | 4 µg/mL (≈ 10.1 µM) | 3 µg/mL (≈ 7.61 µM) | 4 µg/mL (≈ 10.1 µM) | 5 µg/mL (≈ 12.7 µM) | 1 µg/mL (≈ 2.54 µM) | 2 µg/mL (≈ 5.07 µM) | 3 µg/mL (≈ 7.61 µM) | 2 µg/mL (≈ 5.07 µM) | 2 µg/mL (≈ 5.07 µM) | 3 µg/mL (≈ 7.61 µM) | 1 µg/mL (≈ 2.54 µM) | 1 µg/mL (≈ 2.54 µM) | 2 µg/mL (≈ 5.07 µM) | activity against Gram+ strains (Gram+ strains): more active than B.11; activity against some Gram- strains [21]: active against some Gram- strains such as Neisseria; clinical result as a bactericidal agent [22]: very interesting as a bactericidal agent; tolerance compared with B.11 [23]: better tolerated than B.11 |
